According to ChEMBL document CHEMBL5523751, “Discovery of Novel Diaryl-Substituted Fused Heterocycles Targeting Katanin and Tubulin with Potent Antitumor and Antimultidrug Resistance Efficacy” (J Med Chem, 2024):

Tests used:
[1] = tested on: MCF7; experiment: Antiproliferative activity against human MCF7 cells assessed as inhibition of cell growth measured after 48 hrs by MTT assay; type: functional, cell-based; conditions: MCF7, 48 h
[2] = target: T1, Katanin p60 ATPase-containing subunit A1 (Homo sapiens, UniProt O75449); experiment: Binding affinity to C-terminal human Katanin p60 (111 to 491 residues) expressed in Escherichia coli Rosetta (DE3) assessed as dissociation constant by SPR analysis
[3] = Resistance index, ratio of IC50 for antiproliferative activity against human A549/Taxol cells to IC50 for antiproliferative activity against human A549 cells; type: functional
[4] = Antiproliferative activity against cisplatin resistant human A2780/CDDP cells assessed as inhibition of cell growth measured after 48 hrs by MTT assay; type: functional, cell-based
[5] = tested on: A549/TR; experiment: Antitumor activity against paclitaxel resistant human A549/Taxol cells xenografted in BALB/c nude mouse model assessed as inhibition of tumor growth at 15 mg/kg, ip measured after 14 days relative to control; type: functional; set-up: scale not given: the % may be the effect or the level left; conditions: time 14 day
[6] = tested on: MDA-MB-231; experiment: Antitumor activity against human MDA-MB-231 cells xenografted in BALB/c nude mouse model assessed as tumor weight reduction at 7.5 mg/kg, ip measured after 14 days relative to control; type: functional; set-up: scale not given: the % may be the effect or the level left; conditions: time 14 day
[7] = tested on: A549/TR; experiment: Antiproliferative activity against paclitaxel resistant human A549/Taxol cells assessed as inhibition of cell growth measured after 48 hrs by MTT assay; type: functional, cell-based
[8] = Antiproliferative activity against human CDDP-resistant A549 cell assessed as inhibition of cell growth measured after 48 hrs by MTT assay; type: functional, cell-based
[9] = target: T1, Katanin p60 ATPase-containing subunit A1; experiment: Binding affinity to N-terminal human Katanin p60 (8 to 229 residues) expressed in Escherichia coli Rosetta (DE3) assessed as dissociation constant by SPR analysis
[10] = tested on: MDA-MB-231; experiment: Antiproliferative activity against human MDA-MB-231 cells assessed as inhibition of cell growth measured after 48 hrs by MTT assay; type: functional, cell-based; conditions: MDA-MB-231, 48 h
[11] = tested on: MDA-MB-468; experiment: Antiproliferative activity against human MDA-MB-468 cells assessed as inhibition of cell growth measured after 48 hrs by MTT assay; type: functional, cell-based; conditions: MDA-MB-468, 48 h
[12] = tested on: DU-145; experiment: Antiproliferative activity against human DU-145 assessed as inhibition of cell growth measured after 48 hrs by MTT assay; type: functional, cell-based; conditions: DU-145, 48 h
[13] = tested on: U-87 MG; experiment: Antiproliferative activity against human U-87 MG assessed as inhibition of cell growth measured after 48 hrs by MTT assay; type: functional, cell-based, U-87MG ATCC
[14] = tested on: HT-29; experiment: Antiproliferative activity against human HT-29 cells assessed as inhibition of cell growth measured after 48 hrs by MTT assay; type: functional, cell-based; conditions: HT-29, 48 h
[15] = tested on: PANC-1; experiment: Antiproliferative activity against human PANC-1 assessed as inhibition of cell growth measured after 48 hrs by MTT assay; type: functional, cell-based; conditions: PANC-1, 48 h
[16] = tested on: SK-OV-3; experiment: Antiproliferative activity against human SK-OV-3 cells assessed as inhibition of cell growth measured after 48 hrs by MTT assay; type: functional, cell-based; conditions: SK-OV-3, 48 h

T1 sequence (O75449 whole entry, the tested form may be a part): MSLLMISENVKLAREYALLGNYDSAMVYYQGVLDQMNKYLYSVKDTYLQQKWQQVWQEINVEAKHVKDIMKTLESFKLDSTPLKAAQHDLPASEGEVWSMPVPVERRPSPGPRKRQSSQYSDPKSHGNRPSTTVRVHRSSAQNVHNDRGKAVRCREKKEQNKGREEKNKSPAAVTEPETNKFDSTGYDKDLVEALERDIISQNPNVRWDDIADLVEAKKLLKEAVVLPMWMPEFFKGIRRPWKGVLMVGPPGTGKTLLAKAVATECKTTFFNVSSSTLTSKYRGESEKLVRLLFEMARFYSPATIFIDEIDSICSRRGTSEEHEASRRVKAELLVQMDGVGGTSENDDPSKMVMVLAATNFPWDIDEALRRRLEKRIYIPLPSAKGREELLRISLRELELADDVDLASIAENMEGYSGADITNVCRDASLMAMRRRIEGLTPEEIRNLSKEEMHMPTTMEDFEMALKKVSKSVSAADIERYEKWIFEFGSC

## COc1cc(-n2cnc3ccc(-c4ccc(C)c(O)c4)nc32)cc(OC)c1OC
[1]
  IC50: 5 nM
[2]
  Kd: > 50 µM

## COc1ccc(-c2cc(OC)c3[nH]c(=O)n(-c4cc(OC)c(OC)c(OC)c4)c3c2)cc1O
[1]
  IC50: 360 nM

## COc1ccc(C2C(CO)C(=O)N2c2cc(OC)c(OC)c(OC)c2)cc1O (stereo unspecified)
[1]
  IC50: 12 nM

## COc1ccc(-c2cc(N(C)C)c3ncn(-c4cc(OC)c(OC)c(OC)c4)c3c2)cc1O
[1]
  IC50: 211 nM

## COc1ccc(-c2ccc3[nH]c(=O)n(-c4cc(OC)c(OC)c(OC)c4)c3c2)cc1O
[1]
  IC50: 231 nM

## COc1ccc(-c2cc(N(C)C)c3[nH]c(=O)n(-c4cc(OC)c(OC)c(OC)c4)c3c2)cc1O
[1]
  IC50: > 1000 nM

## COc1ccc(-c2cc(C)c3ncn(-c4cc(OC)c(OC)c(OC)c4)c3n2)cc1O
[1]
  IC50: 32 nM

## COc1ccc(-c2ccc3ncn(-c4cc(OC)c(OC)c(OC)c4)c3c2F)cc1O
[1]
  IC50: 24 nM

## COc1ccc(-c2ccc3nnn(-c4cc(OC)c(OC)c(OC)c4)c3c2)cc1O
[1]
  IC50: 27 nM

## COc1cc(-n2cnc3c(OC)cc(-c4ccc(C)c(CO)c4)cc32)cc(OC)c1OC
[1]
  IC50: 67 nM

## CCCc1ccc(-c2ccc3ncn(-c4cc(OC)c(OC)c(OC)c4)c3n2)cc1
[1]
  IC50: > 1000 nM

## CC[C@]1(O)C[C@H]2CN(CCc3c([nH]c4ccccc34)[C@@](C(=O)OC)(c3cc4c(cc3OC)N(C=O)[C@H]3[C@@](O)(C(=O)OC)[C@H](OC(C)=O)[C@]5(CC)C=CCN6CC[C@]43[C@@H]65)C2)C1 [VINCRISTINE]
[3]
  Ratio IC50: >10

## CC(=O)O[C@H]1C(=O)[C@@]2(C)[C@H]([C@H](OC(=O)c3ccccc3)[C@]3(O)C[C@H](OC(=O)[C@H](O)[C@@H](NC(=O)c4ccccc4)c4ccccc4)C(C)=C1C3(C)C)[C@]1(OC(C)=O)CO[C@@H]1C[C@@H]2O [PACLITAXEL]
[4]
  IC50: > 500 µM
[5]
  Activity: 22%
[6]
  Activity: 54%
[7]
  IC50: > 500 nM
[8]
  IC50: > 200 µM

## COc1cc(-n2cnc3ccc(Oc4ccc(C)c(N)c4)nc32)cc(OC)c1OC
[1]
  IC50: > 1000 nM

## COc1ccc(-c2cc3c(cc2C)ncn3-c2cc(OC)c(OC)c(OC)c2)cc1O
[1]
  IC50: 368 nM

## COc1ccc(-c2cc3c([nH]c(=O)n3-c3cc(OC)c(OC)c(OC)c3)c(C(N)=O)n2)cc1O
[9]
  Kd: 9.16 µM
[10]
  IC50: > 5 µM
[11]
  IC50: 222 nM
[1]
  IC50: 813 nM
[12]
  IC50: 2150 nM
[13]
  IC50: 558 nM
[14]
  IC50: > 5 µM
[15]
  IC50: 1690 nM
[2]
  Kd: > 50 µM
[16]
  IC50: 248 nM

## COc1cc(-n2cnc3ccc(-c4ccc(C)c(F)c4)nc32)cc(OC)c1OC
[1]
  IC50: 14 nM

## COc1ccc(-c2cnc3ncn(-c4cc(OC)c(OC)c(OC)c4)c3c2)cc1O
[1]
  IC50: 33 nM

## COc1ccc(-c2ccc3ncn(-c4cc(OC)c(OC)c(OC)c4)c3n2)cc1CO
[1]
  IC50: 32 nM

## COc1ccc(-c2ccc3ncn(-c4cc(OC)c(OC)c(OC)c4)c3c2)cc1O
[1]
  IC50: 36 nM

## CCOc1cc(-c2ccc(OC)c(O)c2)cc2c1[nH]c(=O)n2-c1cc(OC)c(OC)c(OC)c1
[1]
  IC50: > 1000 nM

## COc1cc(-n2cnc3c(OC)cc(-c4ccc(C)c(O)c4)cc32)cc(OC)c1OC
[1]
  IC50: 42 nM
